The record followed here is US20040053872A1, “New sequences” (priority 2000, published 2004).

Data set [1] concerns the target recombinant HIV-1 RT, ref RT (HIV type B, clone BH 10) (Human immunodeficiency virus type 1 group M subtype B, UniProt P03366). Also on record: performed by recombinant HIV-1 RT:s with defined. The conditions noted are these: immobilised primer/template, binding 90 min at 33° C., read-out: Inhibition of binding to template/primer (BIC50). The procedure:
(§1) (iii) Protocol for RT binding inhibition (BIC) assay: The study was performed in a modified DNA polymerase assay. The inhibitors were serially diluted in five steps, enzyme dilution was added and the enzyme/inhibitor mixtures were incubated for 30 minutes at 33° C. Aliquots of the enzyme/inhibitor mixture were transferred to each well of a microtiter plate containing either immobilised primer, or primer/template. The enzyme was allowed to bind to the immobilised polymer for 90 min at 33° C. The amount of RT used was standardised to an activity corresponding to 40-60 pg (3.3-5.0×10^−16 mol) reference HIV-1 RT per well. The plates were then washed to remove unbound enzyme whereupon the amount of bound enzyme was determined by addition of the appropriate reaction solution for polymerisation (i e a reaction solution devoid of primer for studies of primer binding and a reaction solution devoid of both primer and template for studies of binding to primed template). The polymerase reaction was allowed to proceed for 3 hours at 33° C., whereupon the reaction was terminated by a wash of the plate.
(§2) The capacity of the indicated substances to inhibit the binding to primer or to primed DNA template of a panel of recombinant HIV 1 subtype B RTs was studied according to “Protocol for RT binding inhibition (BIC) assay” (protocol (iii) above).

For data set [2], the target named is T1, recombinant HIV-1 RT E478Q (Human immunodeficiency virus type 1 group M subtype B, UniProt P03366, E1077Q).
T1 construct: performed by recombinant HIV-1 RT:s with defined
The data set is described as follows: RT assay: inhibition of RNA dependent DNA polymerisation (modified Lenti RT assay). Format: biochemical. The conditions noted are these: read-out: IC50 of indicated inhibitor in RT assay. On the procedure:
(§3) The flourimetric RT assay (Cavidi® Lenti RT activity kit), available from Cavidi Tech, Uppsala, Sweden, was used for the determination of RT activity. In short, poly(rA) covalently bound to the wells of a 96 well microtiter plate serves as template for the incorporation of 5-bromodeoxyuridine 5′-triphosphate (BrdUTP) during the reverse transcription step at 33° C. The amount of bromodeoxyuridine monophosphate (BrdUMP) incorporated into DNA is detected with an alkaline phosphatase (Ap) conjugated, anti-BrdU monoclonal antibody. An Ap substrate, 4-methylumbelliferyl phosphate, is finally used for fluorimetric product detection.
(i) Protocol for determination of inhibition of RNA dependent DNA polymerisation: The inhibition studies were performed in a modified Lenti RT assay. The inhibitors were serially diluted in five steps, whereupon enzyme dilution was added and the enzyme/inhibitor mixtures were incubated for 30 minutes at 33° C. The enzyme reaction was initiated by addition of 100 μl aliquots of the enzyme/inhibitor mixture to each well of a microtiter plate containing 100 μl RT reaction mixture per well. The polymerase reaction was allowed to proceed for 3 hours at 33° C., whereupon the reaction was terminated by a wash of the plate. […] The amount of RT used was standardised to an activity corresponding to 90-130 pg (7-10×10^−16 mol) reference HIV-1 RT per well
The capacity of the indicated substances to inhibit the enzymes in a panel of recombinant HIV 1 subtype B RTs was studied according to “Protocol for determination of inhibition of RNA dependent DNA polymerisation” (protocol (i) above). The final nucleotide substrate (BrdUTP) concentration was 0.35 μM, and the primer (odT22) amount was 0.03 ng per well.
The RT reaction time used was 3 hours and the results are depicted in FIG. 8 (A-C).

Data set [3] has as its system panel of recombinant HIV 1 subtype B RTs. The experiment in a line: RT binding inhibition (BIC) assay, whole RT panel. The conditions noted are these: all conditions studied. The procedure: as §1, §2
For data set [4], the target named is T2, recombinant HIV-1 RT K103N/E478Q (Human immunodeficiency virus type 1 group M subtype B, UniProt P03366, E1077Q/K702N).
T2 construct: performed by recombinant HIV-1 RT:s with defined
Format: biochemical. The conditions noted are these: second strand DNA synthesis, preincubation 30 minutes at 33° C., 3 hours, read-out: IC50 of indicated inhibitor in DNAp assay. An excerpt:
(§4) The flourimetric DNA-polymerase assay used is available from Cavidi Tech AB, Uppsala, Sweden. It is based on a short DNA primer analogous to a part of the tRNA^Lys3 sequence. The template is a single stranded deoxynucleotide template with part of the sequence complementary to the primer. The enzyme reaction is dependent on all four deoxynucleotide bases. The thymidine triphosphate is, however, replaced by BrdUTP. The amount of BrdUMP incorporated into DNA during the polymerase reaction is detected with an alkaline phosphatase (Ap) conjugated anti-BrdU monoclonal antibody. An Ap substrate, 4-methylumbelliferyl phosphate, is finally used for fluorimetric product detection.
(ii) Protocol for determination of inhibition of second strand synthesis on a variable DNA template: The inhibition studies were performed in a modified DNA polymerase assay. The inhibitors were serially diluted in five steps, enzyme dilution was added and the enzyme/inhibitor mixtures were incubated for 30 minutes at 33° C. The enzyme reaction was initiated by addition of 75 μl aliquots of the enzyme/inhibitor mixture to each well of a microtiter plate containing 75 μl DNA polymerase reaction mixture per well. The polymerase reaction was allowed to proceed for 3 hours at 33° C. whereupon the reaction was terminated by a wash of the plate. […] The amount of RT used was standardised to an activity corresponding to 40-60 pg (3.3-5.0×10^−16 mol) reference HIV-1 RT per well.
The capacity of the indicated substances to inhibit each enzyme in a panel of recombinant HIV 1 subtype B RTs was studied according to “Protocol for determination of inhibition of second strand synthesis on variable DNA template” (protocol (ii) above).

Data set [5] has as its system panel of recombinant HIV 1 subtype B RTs. The data set is described as follows: DNAp assay: inhibition of second strand DNA synthesis, whole RT panel. The conditions noted are these: all RTs of the panel; summary of table 2; read-out: IC50, range over all RTs studied (second strand DNA synthesis). Format: biochemical.
From the text: as §4
(ii) Protocol for determination of inhibition of second strand synthesis on a variable DNA template: The inhibition studies were performed in a modified DNA polymerase assay. […] The enzyme reaction was initiated by addition of 75 μl aliquots of the enzyme/inhibitor mixture to each well of a microtiter plate containing 75 μl DNA polymerase reaction mixture per well.
The results, which are summarised in table 2, were rather similar to those found for inhibition of reverse transcription (table 1).

Data set [6] shares this test system. The data set is described as follows: RT assay: inhibition of RNA dependent DNA polymerisation, whole RT panel. The conditions noted are these: for IC50: all RTs of the panel, summary of table 1, read-out: IC50, range over all RTs studied (reverse transcription). Format: biochemical. The procedure: as §3
(i) Protocol for determination of inhibition of RNA dependent DNA polymerisation: The inhibition studies were performed in a modified Lenti RT assay. […]
The final nucleotide substrate (BrdUTP) concentration was 0.35 μM, and the primer (odT22) amount was 0.03 ng per well.

Setting [7] is: enzyme/inhibitor preincubated 30 minutes at 33° C., BrdUTP 0.35 μM, odT22 0.03 ng per well, 3 hours.

Like-named read-outs stand apart in the source and are kept apart here. Strand notation (5' to 3'): a small letter for the sugar, then the base; units joined by * are phosphorothioate-linked, units joined directly phosphodiester-linked; [ ] holds rarer units or linkages, { } end groups; capitals alone tell only the bases. r = 2'-OH (RNA)

For the substance “substance 198: 15-mer RNA phosphorothioate with the base sequence of tRNALys3 anticodon stem and loop, SEQ ID NO:7 (rC*rA*rG*rA*rC*rU*rU*rU*rU*rA*rA*rU*rC*rU*rG) [reference compound]”, the IC50 in data set [1] was 900 nM; in data set [2] (setting [7]), 320 nM; in data set [4], 1000 nM; in data set [5], 550 to 1000 nM; in data set [6], 340 to 1100 nM. In addition, the “Capacity to prevent RT binding to primer or primed template” value in data set [3] is “significantly less capacity to prevent RT binding”.
Regarding “substance 199: 35-mer RNA molecule having the sequence set out in SEQ ID NO:5; similar to SEQ ID NO:4 with some naturally occurring nucleotide derivatives (GCUCAGNCGGNAGAGCANCAGACUUUUAANCUGAN; RNA, backbone, methylation of C and the base at N not given here; naturally occurring modified nucleosides at n positions)”, the IC50 in data set [1] is 7 nM; in data set [2] (RT and inhibitor added directly to the assay mixture without preincubation) it was 11 nM; in data set [2] (setting [7]), 6 nM; in data set [4], 51 nM; in data set [5], 36 to 51 nM; in data set [6] it was 6 to 12 nM. The “Capacity to prevent RT binding to primer or primed template” value in data set [3] is on record as “had the capacity to prevent RT binding to either primer alone or to primed template”. Besides, in data set [6] (alternative procedure without pre-incubation), the “Results with inhibitor added directly to the RT reaction mixture compared with the standard procedure” value is “not significantly different”.
